Our source for the IC50 values is patent US10053431B2, “Tetrahydro-benzodiazepinones” (priority 2013, dated 2018).

Test [1] concerns the target BIR3 domain of XIAP (Homo sapiens (Human), UniProt P98170). Kind of test: TR-FRET assay for BIR3 (inhibition of binding of XIAP BIR3 domain to SMAC-derived Peptide A).
Test [2] addresses BIR2 domain of XIAP (Homo sapiens (Human), UniProt P98170, C202A/C213G). The experiment in a line: TR-FRET assay for BIR2 (inhibition of binding of XIAP BIR2 domain to SMAC-derived Peptide A). The following applies: 6x His-tagged BIR2 domain (aa 124-240 of XIAP) 10 nM, Peptide A 20 nM, TR-FRET; read-out: IC50 BIR2. A general note: In TR-FRET formats the signal depends on donor and acceptor labels being close together.

Where [3] appears, read: 6x His-tagged BIR3 domain (aa 241-356 of XIAP) 10 nM, Peptide A 20 nM, TR-FRET.

Where a name gives a salt, the structure may show the parent alone. Read-outs that look alike come from different tables or passages of the source.

BIR3 domain of XIAP, sequence (P98170 241-356 with tags or gaps limits assumed): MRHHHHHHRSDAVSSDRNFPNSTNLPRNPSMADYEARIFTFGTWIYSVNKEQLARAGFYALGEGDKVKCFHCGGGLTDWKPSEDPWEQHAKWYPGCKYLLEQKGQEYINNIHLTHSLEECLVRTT
BIR2 domain of XIAP, sequence (P98170 124-240 with tags or gaps C202A/C213G limits assumed): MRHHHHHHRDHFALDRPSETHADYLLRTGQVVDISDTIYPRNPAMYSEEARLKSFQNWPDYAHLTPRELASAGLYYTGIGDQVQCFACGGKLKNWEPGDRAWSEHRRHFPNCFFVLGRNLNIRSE

The IC50 is the concentration that inhibits the measured activity by half. For `CN[C@@H](C)C(=O)N[C@H]1CN(C(=O)c2ccccc2[C@H](C)O)c2ccccc2N(Cc2c(C)ccc3ccccc23)C1=O` (stereo in doubt) [Example 148, (2S)-N-[(3S)-1-[2-[(1S)-1-hydroxyethyl]benzoyl]-5-[(2-methylnaphthalen-1-yl)methyl]-4-oxo-2,3-dihydro-1,5-benzodiazepin-3-yl]-2-(methylamino)propanamide;(2S)-N-[(3S)-1-[2-[(1R)-1-hydroxyethyl]benzoyl]-5-[(2-methylnaphthalen-1-yl)methyl]-4-oxo-2,3-dihydro-1,5-benzodiazepin-3-yl]-2-(methylamino)propanamide], the IC50 is above 54800 nM in test [1] (setting [3]) and 40.1 nM in test [2]. For `CN[C@@H](C)C(=O)N[C@H]1CN(C(=O)Cc2ccccc2)c2ccccc2N(Cc2cccc3ccccc23)C1=O` [Example 4, (S)-2-Methylamino-N—((S)-1-naphthalen-1-ylmethyl-2-oxo-5-phenylacetyl-2,3,4,5-tetrahydro-1H-benzo[b][1,4]diazepin-3-yl)-propionamide hydrochloride], in that order: above 54000 nM and 409 nM. The like results for `CN[C@@H](C)C(=O)N[C@H]1CN(C(=O)c2ccncc2)c2ccccc2N(Cc2c(C)ccc3ccccc23)C1=O` [Example 9, (S)-2-Methylamino-N—[(S)-1-(2-methyl-naphthalen-1-naphthalen-1 ylmethyl)-2-oxo-5-(pyridine-4-carbonyl)-2,3,4,5-tetrahydro-1H-benzo[b][1,4]diazepin-3-yl]-propionamide hydrochloride] were, in that order, above 54800 nM and 520 nM.

Consider `CN[C@@H](C)C(=O)N[C@H]1CN(C(=O)COCCOC)c2ccccc2N(Cc2c(C)ccc3ccccc23)C1=O` [Example 10, (S)—N—[(S)-5-[2-(2-methoxy-ethoxy)-acetyl]-1-(2-methyl-naphthalen-1-ylmethyl)-2-oxo-2,3,4,5-tetrahydro-1H-benzo[b][1,4]diazepin-3-yl]-2-methylamino-propionamide hydrochloride], for which the results for the IC50 in test [1] (setting [3]) and in test [2] were above 54800 nM and 364 nM, respectively. The like results for `CN[C@@H](C)C(=O)N[C@H]1CN(C(=O)CC(N)=O)c2ccccc2N(Cc2c(C)ccc3ccccc23)C1=O` [Example 11, (S)—N—[(S)-5-(2-Carbamoyl-acetyl)-1-(2-methyl-naphthalen-1-ylmethyl)-2-oxo-2,3,4,5-tetrahydro-1H-benzo[b][1,4]diazepin-3-yl]-2-methylamino-propionamide hydrochloride] were, in that order, above 54800 nM and 426 nM. The like results for `CN[C@@H](C)C(=O)N[C@H]1CN(C(=O)CN2CCN(C)CC2)c2ccccc2N(Cc2c(C)ccc3ccccc23)C1=O` [Example 12, (S)-2-methylamino-N—{(S)-1(2-methyl-naphthalen-1-ylmethyl)-5-[2-(4-methyl-piperazin-1-yl)-acetyl]-2-oxo-2,3,4,5-tetrahydro-1H-benzo[b][1,4]diazepin-3-yl}-propionamide hydrochloride] were, in that order, above 54800 nM and 820 nM. For `CN[C@@H](C)C(=O)N[C@H]1CN(C(=O)c2ccc(S(C)(=O)=O)cc2)c2ccccc2N(Cc2c(C)ccc3ccccc23)C1=O` [Example 13c], in that order: above 54800 nM and 119 nM. Turning to `CN[C@@H](C)C(=O)N[C@H]1CN(C(=O)CCCCC(=O)OC)c2ccccc2N(Cc2c(C)ccc3ccccc23)C1=O` [Example 13e], the IC50 in test [1] (setting [3]) was above 54800 nM; in test [2], 308 nM. Take `CN[C@@H](C)C(=O)N[C@H]1CN(C(=O)c2ccc(C(C)=O)cc2)c2ccccc2N(Cc2c(C)ccc3ccccc23)C1=O` [Example 13f]: the figures for the IC50 in test [1] (setting [3]) and in test [2] were above 54800 nM and 54 nM, respectively. For `CN[C@@H](C)C(=O)N[C@H]1CN(C(=O)c2cc(OC)c(OC)c(OC)c2)c2ccccc2N(Cc2c(C)ccc3ccccc23)C1=O` [Example 13g], in that order: above 54800 nM and 481 nM.

For `CN[C@@H](C)C(=O)N[C@H]1CN(C(=O)CCNC(=O)OCC2c3ccccc3-c3ccccc32)c2ccccc2N(Cc2c(OC)ccc3cc(C(=O)OC)ccc23)C1=O` [Example 13r], the IC50 was 46700 nM in test [1] (setting [3]) and 17 nM in test [2].

With `CN[C@@H](C)C(=O)N[C@H]1CN(C(=O)CCC(=O)O)c2ccccc2N(Cc2c(C)ccc3ccccc23)C1=O` [Example 16, 4-[(S)-3-((S)-2-Methylamino-propionylamino)-5-(2-methyl-naphthalen-1-ylmethyl)-4-oxo-2,3,4,5-tetrahydro-benzo[b][1,4]diazepin-1-yl]-4-oxo-butyric acid hydrochloride], the IC50 in test [1] (setting [3]) is above 54800 nM; in test [2], 126 nM. For `CNC(=O)N1C[C@H](NC(=O)[C@H](C)NC)C(=O)N(Cc2c(C)ccc3ccccc23)c2ccccc21` [Example 17, (S)-3-((S)-2-Methylamino-propionylamino)-5-(2-methyl-naphthalen-1-ylmethyl)-4-oxo-2,3,4,5-tetrahydro-benzo[b][1,4]diazepine-1-carboxylic acid methylamide hydrochloride], the IC50 was above 54800 nM in test [1] and 1430 nM in test [2]. Consider `CN[C@@H](C)C(=O)N[C@H]1CN(S(=O)(=O)CS(C)(=O)=O)c2ccccc2N(Cc2c(C)ccc3ccccc23)C1=O` [Example 18, (S)—N—[(S)-5-Methanesulfonylmethanesulfonyl-1-(2-methyl-naphthalen-1-ylmethyl)-2-oxo-2,3,4,5-tetrahydro-1H-benzo[b][1,4]diazepin-3-yl]-2-methylamino-propionamide trifluoroacetate], for which the IC50 in test [1] (setting [3]) is above 54800 nM; in test [2], 590 nM. For the compound `CN[C@@H](C)C(=O)N[C@H]1CN(S(C)(=O)=O)c2ccccc2N(Cc2c(C)ccc3ccccc23)C1=O` [Example 19, (S)—N—[(S)-5-methanesulfonyl-1-(2-methyl-naphthalen-1-ylmethyl)-2-oxo-2,3,4,5-tetrahydro-1H-benzo[b][1,4]diazepin-3-yl]-2-methylamino-propionamide hydrochloride], the results for the IC50 in test [1] (setting [3]) and in test [2] were above 54800 nM and 620 nM, respectively. The like results for `CN[C@@H](C)C(=O)N[C@H]1CN(C(=O)OC)c2ccccc2N(Cc2c(C)ccc3ccccc23)C1=O` [Example 20, ((S)-3-((S)-2-Methylamino-propionylamino)-5-(2-methyl-naphthalen-1-ylmethyl)-4-oxo-2,3,4,5-tetrahydro-benzo[b][1,4]diazepine-1-carboxylic acid methyl ester hydrochloride] were, in that order, above 54800 nM and 588 nM. The like results for `CN[C@@H](C)C(=O)N[C@H]1CN(C(=O)c2ccc(C(C)=O)cc2)c2ccccc2N(CCc2cccc3ccccc23)C1=O` [Example 40, (S)—N—((S)-5-(4-acetylbenzoyl)-1-(2-(naphthalen-1-yl)ethyl)-2-oxo-2,3,4,5-tetrahydro-1H-benzo[b][1,4]diazepin-3-yl)-2-(methylamino)propanamide] were, in that order, 7420 nM and 173 nM. For `CN[C@@H](C)C(=O)N[C@H]1CN(C(=O)c2ccc(NC(C)=O)cc2)c2ccccc2N(Cc2c(OC)ccc3ccccc23)C1=O` [Example 42, (S)—N—[(S)-5-(4-Acetylamino-benzoyl)-1-(2-methoxy-naphthalen-1-ylmethyl)-2-oxo-2,3,4,5-tetrahydro-1H-benzo[b][1,4]diazepin-3-yl]-2-methylamino-propionamide hydrochloride], the half-maximal inhibitory concentration (IC50) was above 54800 nM in test [1] (setting [3]) and 37 nM in test [2]. For `CN[C@@H](C)C(=O)N[C@H]1CN(C(=O)c2ccc(C(C)=O)cc2)c2ccccc2N(Cc2c(OC)ccc3cc(C(=O)OC)ccc23)C1=O` [Example 43, 5-[(S)-5-(4-Acetyl-benzoyl)-3-((S)-2-methylamino-propionylamino)-2-oxo-2,3,4,5-tetrahydro-benzo[b][1,4]diazepin-1-ylmethyl]-6-methoxy-naphthalen-2-carboxylic acid methyl ester hydrochloride], in that order: 44100 nM and 57 nM. For `CN[C@@H](C)C(=O)N[C@H]1CN(C(=O)c2ccc(C(C)=O)cc2)c2ccccc2N(Cc2c(OC)ccc3cc(C(=O)O)ccc23)C1=O` [Example 44, 5-[[(3S)-1-(4-acetylbenzoyl)-3-[[(2S)-2-(methylamino)propanoyl]amino]-4-oxo-2,3-dihydro-1,5-benzodiazepin-5-yl]methyl]-6-methoxy-naphthalene-2-carboxylic acid; hydrochloride], in that order: 17400 nM and 16 nM. The like results for `CN[C@@H](C)C(=O)N[C@H]1CN(C(=O)CCCC(C)=O)c2ccccc2N(Cc2c(OC)ccc3cc(C(=O)O)ccc23)C1=O` [Example 47, 6-Methoxy-5-[(S)-3 ((S)-2-methylamino-propionylamino)-2-oxo-5-(5-oxo-hexanoyl)-2,3,4,5-tetrahydro-benzo[b][1,4]diazepin-1-ylmethyl]-naphthalene-2-carboxylic acid hydrochloride] were, in that order, 44600 nM and 20 nM. In the case of `CN[C@@H](C)C(=O)N[C@H]1CN(C(=O)CCCNC(=O)OCC2c3ccccc3-c3ccccc32)c2ccccc2N(Cc2c(OC)ccc3cc(C(=O)OC)ccc23)C1=O` [Example 48, 5-[(S)-5-[4-(9H-Fluoren-9-ylmethoxycarbonylamino)-butyryl]-3-((S)-2-methylamino-propionylamino)-2-oxo-2,3,4,5-tetrahydro-benzo[b][1,4]diazepin-1-ylmethyl]-6-methoxy-naphthalene-2-carboxylic acid methyl ester hydrochloride], the IC50 was determined as 33200 nM in test [1] (setting [3]) and 23 nM in test [2]. In turn, `CN[C@@H](C)C(=O)N[C@H]1CN(C(=O)CC2CCOCC2)c2ccccc2N(Cc2c(OC)ccc3c(Br)cccc23)C1=O` [Example 87, (S)—N—((S)-1-((5-bromo-2-methoxynaphthalen-1-yl)methyl)-2-oxo-5-(2-(tetrahydro-2H-pyran-4-yl)acetyl)-2,3,4,5-tetrahydro-1H-benzo[b][1,4]diazepin-3-yl)-2-(methylamino)propanamide hydrochloride] yielded an IC50 in test [1] (setting [3]) of 54400 nM.
